In the oligonucleotide strings, read from the 5' end, every base follows the letter of its sugar. An asterisk marks phosphorothioate; unmarked linkages are phosphodiester. Other units and linkages are bracketed, terminal groups are in braces. A string of capitals states the bases alone. e = 2'-O-(2-methoxyethyl) (MOE); [5mC] = 5-methylcytosine; d = 2'-deoxy (DNA)
Columns and labels:
Format in all cases: cell-based, human
PPARγ = PPARγ mRNA expression in adipocytes (real-time PCR)
Method: (§1) Expression of the four hallmark genes, HSL, aP2, Glut4, and PPARγ, is also measured in adipocytes transfected with oligomeric compounds of the invention. Cells are lysed on day nine post-transfection and total RNA is harvested. The amount of total RNA in each sample is determined using a Ribogreen Assay (Invitrogen Life Technologies, Carlsbad, Calif.).
(§2) For assaying adipocyte differentiation, expression of the four hallmark genes, HSL, aP2, Glut4, and PPARγ, as well as triglyceride (TG) accumulation and leptin secretion were measured in adipocytes transfected with the uniform 2′-MOE phosphorothioate (PS) oligomeric compounds previously described. Cells are lysed on day nine post-transfection, in a guanadinium-containing buffer and total RNA is harvested. Real-time PCR is performed (Applied Biosystems, Prism 7700) on the total RNA using the following primer/probe sets for the adipocyte differentiation hallmark genes: (aP2): forward 5′-GGTGGTGGAATGCGTCATG-3′ (SEQ ID NO: 746), reverse 5′-[…]-3′ (SEQ ID NO: 747), probe 5′-FAM-[…]-TAMRA-3′ (SEQ ID NO: 748); (Glut4): forward 5′-GGCCTCCGCAGGTTCTG-3′ (SEQ ID NO: 749), reverse 5′-[…]-3′ (SEQ ID NO: 750), probe 5′-FAM-[…]-TAMRA-3′ (SEQ ID NO: 751); (HSL): forward 5′-ACCTGCGCACAATGACACA-3′ (SEQ ID NO: 752), reverse 5′-[…]-3′ (SEQ ID NO: 753), probe 5′-FAM-[…]-TAMRA-3′ (SEQ ID NO: 754); (PPAR-γ): forward 5′-[…]-3′ (SEQ ID NO: 755), reverse 5′-[…]-3′ (SEQ ID NO: 756), probe 5′-FAM-[…]-TAMRA-3′ (SEQ ID NO: 757). The amount of total RNA in each sample is determined using a Ribogreen Assay (Molecular Probes, Eugene, Oreg.), and expression levels of the adipocyte differentiation hallmark genes were normalized to total RNA.

aP2 = aP2 mRNA expression in adipocytes (real-time PCR); settings: for aP2 mRNA: Table 75
Method: as §1, §2

adipocytes = test: Triglyceride accumulation assay in adipocytes
Method: The triglyceride accumulation assay measures the synthesis of triglyceride by adipocytes. Triglyceride accumulation is measured using the Infinity™ Triglyceride reagent kit (Sigma-Aldrich, St. Louis, Mo.). On day nine post-transfection, cells are washed and lysed at room temperature, and the triglyceride assay reagent is added. Triglyceride accumulation is measured based on the amount of glycerol liberated from triglycerides by the enzyme lipoprotein lipase. Liberated glycerol is phosphorylated by glycerol kinase, and hydrogen peroxide is generated during the oxidation of glycerol-1-phosphate to dihydroxyacetone phosphate by glycerol phosphate oxidase. Horseradish peroxidase (HRP) uses H2O2 to oxidize 4-aminoantipyrine and 3,5 dichloro-2-hydroxybenzene sulfonate to produce a red-colored dye. Dye absorbance, which is proportional to the concentration of glycerol, is measured at 515 nm using an UV spectrophotometer. Glycerol concentration is calculated from a standard curve for each assay, and data are normalized to total cellular protein as determined by a Bradford assay (Bio-Rad Laboratories, Hercules, Calif.).
An increase in triglyceride content is another well-established marker for adipocyte differentiation. The triglyceride accumulation assay measures the synthesis of triglyceride by adipocytes. Triglyceride accumulation was measured using the Infinity™ Triglyceride reagent kit (Sigma-Aldrich, St. Louis, Mo.). Human white preadipocytes (Zen-Bio Inc., Research Triangle Park, N.C.) were grown in preadipocyte media (ZenBio Inc.). One day before transfection, 96-well plates were seeded with 3000 cells/well. Cells were transfected according to standard published procedures with 250 nM oligomeric compound in LIPOFECTIN™ (Invitrogen Corporation, Carlsbad, Calif.) (Monia et al., J. Biol. Chem. 1993 268(19):14514-22). Oligomeric compounds were tested in triplicate on each 96-well plate, and the effects of TNF-α, a positive drug control that inhibits adipocyte differentiation, were also measured in triplicate. Negative and transfectant-only controls may be measured up to six times per plate. After the cells have reached confluence (approximately three days), they were exposed to differentiation media (Zen-Bio, Inc.) containing a PPAR-γ agonist, IBMX, dexamethasone, and insulin for three days. Cells were then fed adipocyte media (Zen-Bio, Inc.), which was replaced at 2 to 3 day intervals. […] Triglyceride accumulation was measured based on the amount of glycerol liberated from triglycerides by the enzyme lipoprotein lipase. Liberated glycerol is phosphorylated by glycerol kinase, and hydrogen peroxide is generated during the oxidation of glycerol-1-phosphate to dihydroxyacetone phosphate by glycerol phosphate oxidase. Horseradish peroxidase (HRP) uses H2O2 to oxidize 4-aminoantipyrine and 3,5 dichloro-2-hydroxybenzene sulfonate to produce a red-colored dye. Dye absorbance, which is proportional to the concentration of glycerol, was measured at 515 nm using an UV spectrophotometer. Glycerol concentration was calculated from a standard curve for each assay, and data were normalized to total cellular protein as determined by a Bradford assay (Bio-Rad Laboratories, Hercules, Calif.). Results are expressed as a percent±standard deviation relative to transfectant-only control.

Glut4 = Glut4 mRNA expression in adipocytes (real-time PCR)
Method: as §1, §2

HSL = HSL mRNA expression in adipocytes (real-time PCR)
Method: as §1, §2

[1] = Table 17, differentiating adipocytes, control = treatment with ISIS 342673
[2] = differentiating adipocytes transfected with oligomeric compound, Table 75
[3] = differentiating adipocytes transfected with oligomeric compound
[4] = Table 18, differentiating adipocytes, control = treatment with ISIS 342673

Row | Substance | PPAR gamma mRNA (PPARγ; [2]) | aP2 mRNA (aP2; [3]) | TG (triglyceride accumulation) (adipocytes; [2]) | GLUT4 mRNA (Glut4; [2]) | HSL mRNA (HSL; [2]) | other results
1 | 328131 (antisense eA*eT*eA*eT*eG*eT*e[5mC]*eA*eT*eA*eT*e[5mC]*eA*eA*eA*e[5mC]*eT*e[5mC]*e[5mC]*eT*eA) [compound 328131] | 55 percentage of untreated control (UTC) | 63 percentage of untreated control (UTC) | 74 percentage of untreated control (UTC) | 56 percentage of untreated control (UTC) | 51 percentage of untreated control (UTC) | PPAR gamma mRNA (PPARγ; [1]): 88.2 percentage of control; AP2 mRNA (aP2; [1]): 95.4 percentage of control; TG (triglyceride accumulation) (adipocytes; [1]): 89.1 percentage of control; GLUT4 mRNA (Glut4; [1]): 103.6 percentage of control; HSL mRNA (HSL; [1]): 81.8 percentage of control
2 | 328126 (antisense e[5mC]*e[5mC]*eA*eA*eG*eT*eG*eT*eT*eA*eG*eA*eG*e[5mC]*eA*eA*eG*eA*eT*e[5mC]*eA) [compound 328126] | 98 percentage of untreated control (UTC) | 120 percentage of untreated control (UTC) | 108 percentage of untreated control (UTC) | 107 percentage of untreated control (UTC) | 135 percentage of untreated control (UTC) | PPAR gamma mRNA (PPARγ; [1]): 75.0 percentage of control; AP2 mRNA (aP2; [1]): 90.9 percentage of control; TG (triglyceride accumulation) (adipocytes; [1]): 98.9 percentage of control; GLUT4 mRNA (Glut4; [1]): 100.7 percentage of control; HSL mRNA (HSL; [1]): 83.2 percentage of control
3 | 328106 (antisense eA*eT*eT*eG*eA*eT*eG*e[5mC]*eG*e[5mC]*e[5mC]*eA*eT*eT*eT*eG*eG*e[5mC]*e[5mC]*eT*eA) [compound 328106] | 81 percentage of untreated control (UTC) | 91 percentage of untreated control (UTC) | 70 percentage of untreated control (UTC) | 79 percentage of untreated control (UTC) | 86 percentage of untreated control (UTC) | PPAR gamma mRNA (PPARγ; [4]): 90.7 percentage of control; AP2 mRNA (aP2; [4]): 88.8 percentage of control; TG (triglyceride accumulation) (adipocytes; [4]): 90.5 percentage of control; GLUT4 mRNA (Glut4; [4]): 105.7 percentage of control; HSL mRNA (HSL; [4]): 94.9 percentage of control
4 | 346921 (AACAACCAGCUAAGACACUGCCA; all 2'-MOE, all phosphorothioate, methylation of C and T or U not given here) [compound 346921] | 62 percentage of untreated control (UTC) | 69 percentage of untreated control (UTC) | 52 percentage of untreated control (UTC) | 51 percentage of untreated control (UTC) | 49 percentage of untreated control (UTC) | –
5 | 344277 (antisense AAUACAUACUUCUUUACAUUCCA; all 2'-MOE, all phosphorothioate, methylation of C and T or U not given here) [compound 344277] | 68 percentage of untreated control (UTC) | 61 percentage of untreated control (UTC) | 75 percentage of untreated control (UTC) | 45 percentage of untreated control (UTC) | 57 percentage of untreated control (UTC) | –
6 | 341795 (antisense AACCAAUGUGCAGACUACUGUA; all 2'-MOE, all phosphorothioate, methylation of C and T or U not given here) [compound 341795] | 74 percentage of untreated control (UTC) | 76 percentage of untreated control (UTC) | 57 percentage of untreated control (UTC) | 55 percentage of untreated control (UTC) | 74 percentage of untreated control (UTC) | –
7 | 328340 (eT*eA*eA*eT*eA*dT*dA*dT*dA*dT*dT*dT*d[5mC]*dA*d[5mC]*eT*eA*e[5mC]*eG*e[5mC]) [compound 328340] | – | – | – | – | – | PPAR gamma mRNA (PPARγ; [3]): 110 percentage of untreated control (UTC); AP2 mRNA (aP2; [3]): 85 percentage of untreated control (UTC); TG (triglyceride accumulation) (adipocytes; [3]): 76 percentage of untreated control (UTC); GLUT4 mRNA (Glut4; [3]): 112 percentage of untreated control (UTC); HSL mRNA (HSL; [3]): 130 percentage of untreated control (UTC)
8 | 328096 (antisense e[5mC]*e[5mC]*eT*e[5mC]*eT*e[5mC]*eA*eA*eA*eG*eA*eT*eT*eT*e[5mC]*e[5mC]*eT*eG*eT*e[5mC]*eA) [compound 328096] | 89 percentage of untreated control (UTC) | 71 percentage of untreated control (UTC) | 74 percentage of untreated control (UTC) | 79 percentage of untreated control (UTC) | 76 percentage of untreated control (UTC) | –
9 | 328104 (antisense eT*eA*eT*eG*eA*eT*eA*eG*e[5mC]*eT*eT*e[5mC]*e[5mC]*e[5mC]*e[5mC]*eA*eT*eG*eT*eA*eA) [compound 328104] | 73 percentage of untreated control (UTC) | 94 percentage of untreated control (UTC) | 64 percentage of untreated control (UTC) | 83 percentage of untreated control (UTC) | 81 percentage of untreated control (UTC) | PPAR gamma mRNA (PPARγ; [4]): 90.4 percentage of control; AP2 mRNA (aP2; [4]): 102.2 percentage of control; TG (triglyceride accumulation) (adipocytes; [4]): 122.6 percentage of control; GLUT4 mRNA (Glut4; [4]): 119.1 percentage of control; HSL mRNA (HSL; [4]): 98.2 percentage of control
10 | 348116 (UUCGCCCUCUCAACCCAGCUUUU; anti-miR; all 2'-MOE, all phosphorothioate, methylation of C and T or U not given here) [compound 348116] | 76 percentage of untreated control (UTC) | 79 percentage of untreated control (UTC) | 43 percentage of untreated control (UTC) | 48 percentage of untreated control (UTC) | 58 percentage of untreated control (UTC) | –
11 | 346694 (AACCCAUGGAAUUCAGUUCUCA; all 2'-MOE, all phosphorothioate, methylation of C and T or U not given here) [compound 346694] | 32 percentage of untreated control (UTC) | 41 percentage of untreated control (UTC) | 31 percentage of untreated control (UTC) | 5 percentage of untreated control (UTC) | 18 percentage of untreated control (UTC) | –
